According to patent EP0487768A1, “Pharmaceutical composition with improved dissolution property” (YOSHITOMI PHARMACEUTICAL INDUSTRIES, LTD., priority 1990, dated 1992):

Assay: Solubility of Compound A in mediums with various pHs
Format: physicochemical
Conditions: mediums with various pHs including water (Fig. 4)
Excerpt: Thus, as shown in Fig. 5 in the results of the dissolution test of the tablets prepared by a conventional means employed for formulation of preparations, such as mixing Compound A with lactose, corn starch, etc. for granulation, adding talc, magnesium stearate, etc. and compressing same, the dissolution property is not entirely satisfactory, reflecting the properties of the compound per se.
Fig. 1 is a graph showing the results of the dissolution test of the fine granules of Reference Example 1 and Example 1 in the 1st fluid and the 2nd fluid, Fig. 2 is a graph showing the results of the dissolution test of the tablets of Reference Example 2 and Example 2 in the 1st fluid and the 2nd fluid, Fig. 3 is a graph showing the results of the dissolution test of the fine granules of Reference Example 1 and Example 3 in the 1st fluid and the 2nd fluid, Fig. 4 is a graph showing the solubilities of Compound A in mediums with various pHs, and Fig. 5 is a graph showing the results of the dissolution test of the tablets prepared by the conventional formulation methods in the 1st fluid and the 2nd fluid.

solubility: slightly soluble
SMILES: O=c1cc2c(nn1-c1ccc(Cl)cc1)-c1ccccc1[S+]([O-])CC2 (stereo not shown) [Compound A, 2-(4-chlorophenyl)-5,6-dihydro-(1)benzothiepino[5,4-c]pyridazine-3(2H)-one 7-oxide]
